The results in this text go back to patent publication US11654167B2, “Pharmaceutical composition based on bacteriophages against F. nucleatum; use in the treatment of diseases associated with this pathogen” (priority 2016, dated 2023).

The subject of test [1] is alveolar bone of the first molar. Nature of the test: bone loss of alveolar bone of the first molar. The class given is in vivo, Sprague Dawley rat. To be noted: chlorhexidine 0.12% and/or amoxicillin. The procedure: In order to determine bone loss, we measured directly the alveolar bone of the first molar in the hemi sectioned right jaw of each subject. In order to obtain the alveolar bone, the jaw extraction is performed and autoclaved for 20 min. The first cleaning is performed, removing the associated tissue. Afterwards, the bones are soaked in hydrogen peroxide at 3% for all night at room temperature. After this time, the pieces were washed with distilled water in order to eliminate any remainder of adhered tissue; the bone is brushed with toothpaste and finally washed with distilled water. Clean jaws are stained with methylene blue at 1% for 15 seconds, and then washed with distilled water to remove the excess of stain. The pieces are left to dry by air, and it is in this moment when the limit cement-enamel appears in the associated dental piece. The measure is obtained by measuring from the exposed base of the root of the tooth to the cement-enamel limit.

Test [2] deals with F. nucleatum. Put plainly: in vivo bacteria count of F. nucleatum in co-infected rats. To be noted: chlorhexidine 0.12% local cleaning and/or amoxicillin (50 mg/Kg) in water. Set-up: species or system Sprague Dawley rat.
Method: An evaluation is performed to determine the effect of these treatments on the microbiological count associated with periodontal destruction in Sprague Dawley rat models inoculated with P. gingivalis and F. nucleatum, the main pathogens of the etiology of periodontal disease.
(§1) Methodology consists in co-infecting rats with P. gingivalis and F. nucleatum, and treating or not treating them with the mixture of bacteriophages Fnpϕ02-14, Fnpϕ11 and Fnnϕ107 at different MOI. The procedure for each stage is described below:
(§2) Finally, on week 10, the sacrifice of the rats of the group is performed. The initial treatment of local cleaning with CHX 0.12% and the local administration of the bacteria mixture is performed under anesthesia for 5-10 sec. with isoflurane gas. The sacrifice of the rats was performed with an anesthesia overdose of Ketamine:Xylazine (2:1).
(§3) The mixture of the three lytic bacteriophages Fnpϕ02-14, Fnpϕ11 and Fnnϕ107, specific for F. nucleatum, is performed, with a concentration of 10^8, 10^10 and 10^8 UFP/mL, respectively. Afterwards, it was kept at 4° C. until it was used.
Each research group is composed by 3 subjects per cage, and there ware a number of 6 subjects per group. […]
For test [3], the system named is F. nucleatum. Nature of the test: detection of F. nucleatum by PCR in co-infected rats. The class given is in vivo, Sprague Dawley rat. The conditions noted are these: chlorhexidine 0.12% and/or amoxicillin.
Method: as §1, §2, §3
Each research group is composed by 3 subjects per cage, and there ware a number of 6 subjects per group. The research groups are the following: Group 1 (Continuous treatment phage), in which the administration of the mixture of bacteriophages in a multiplicity of infection (MOI) of 0.01 (1 bacteria for 100 phages) is performed, in the same inoculation times as the bacteria mixture (week 2, 4, 6 and 8), for 4 days every time. […]
The test system of test [4] is RANKL and OPG. Nature of the test: bone reabsorption indicators RANKL and OPG in plasma by indirect ELISA. The test is classed as in vivo, Sprague Dawley rat. To be noted: chlorhexidine 0.12% and/or amoxicillin. The procedure:
The determination of bone reabsorption of the different subjects of treatment is performed based on measuring the molecules associated with this type of physiological response. The levels of RANKL and OPG molecules are measured by Enzyme-Linked ImmunoSorbent Assay (ELISA), specifically the ELISA indirect type, performed from a plasma sample. The blood sample was extracted as follows: the rat is deeply anesthetized with ketamine:xylazine, via the intraperitoneal route. The rat is treated with heparin 2 minutes before surgery, also via the intraperitoneal route with 200-300 μL. […]
Prior to the use of plasma, a quantification of proteins (mg/mL) of each sample is performed by the concentrated Bradford protocol (5×). […] Finally, the absorbance is measured at 595 nm in a plate reader (SQ-2800 model spectrophotometer, United Products & Instruments Inc., Dayton, USA). […]
It is mixed and protected from the light. […] Afterwards, in order to stop the reaction, 100 μL of NaOH 3N, in order to finally read the absorbency of each well at 405 nm in an ELISA reader. • In order to obtain the values of concentration for each sample, the Lambert-Beer formula was used: Abs405=ε*d*[mM]; • where ε: extinction coefficient 18.5*10^3 M^−1 cm^−1 and d: length of the well 1 cm. […]
In general terms: In an ELISA, binding on a coated surface is turned into a signal by an enzyme label.

Test [5] relates to gingival tissue associated with the first molar. Nature of the test: histology of gingival tissue (hematoxylin-eosin), inflammatory response. The conditions noted are these: chlorhexidine 0.12% and/or amoxicillin (50 mg/Kg). The class given is in vivo, Sprague Dawley rat. The procedure:
In order to perform the analysis of gingival tissue associated with the first molar once the piece is worn out, this one is fixed in a solution of paraformaldehyde at 10% for 24 hours. Afterwards, the bone is decalcified in an […] solution for 24 hours. The decalcified tissue was soaked in paraffin blocks, in order to be cut afterwards by a microtome in transversal sections for 4μ, in order to be finally stained with the hematoxylin-eosin staining. […] The presence or absence of inflammation in the tissue was examined by using the following parameters: Hematopoietic distribution, presence of vasodilation, thickness of keratinized epithelial tissue, presence of immune cells (lymphocytes, monocytes, polymorph nuclear, etc.), prisoners of inflammatory focus and cell infiltration in keratinized epithelium. In this way, the manifestations of acute or chronic inflammatory response and the normal, incipient, or established inflammatory response were determined.

As for `CC1(C)S[C@@H]2[C@H](NC(=O)[C@H](N)c3ccc(O)cc3)C(=O)N2[C@H]1C(=O)O` [amoxicillin], the “bone loss of alveolar bone versus control group” value in test [1] is on record as “do not avoid bone loss”. In addition, the “F. nucleatum count after versus before treatment” value in test [2] is on record as “only the count in the post mortem sample decreases”. Besides, in test [3], the “detection of F. nucleatum by PCR, post-treatment versus pre-treatment samples” value is recorded as “lower count of positive detections”. Moreover, the “ratio RANKL/OPG versus control group without treatment” value in test [4] was “present significant differences”. The “inflammatory response in histological sections” value in test [5] is “presence of an acute incipient inflammatory response”.
For `[H]/N=C(\N/C(=N/[H])NCCCCCCNC(=N)NC(=N)Nc1ccc(Cl)cc1)Nc1ccc(Cl)cc1` [chlorhexidine] the same measures were “do not avoid bone loss”, “tendency to reducing bacteria count”, “lower count of positive detections”, “do not present significant differences” and “presence of an active acute inflammatory response”.
